{
  "source": "patent US8258128B2",
  "about": "“Organic compounds” (Novartis AG, priority 2006, dated 2012)",
  "key": {"[1]": {"system": "rat carrageenan edema model", "experiment": "Carrageenan edema in the rat (paw swelling)", "format": "in vivo", "procedure": "Carrageenan edema in the rat: The effects of COMPOUND A are investigated in the carrageenan edema model. In this model an acute paw swelling is induced by the sub-plantar injection of carrageenan. The paw swelling has a duration of approximately 8 hours and is completely resolved at 24 hours. The model is used to assess anti-inflammatory activities of new therapeutics and is also sensitive to drugs such as COX-inhibitors like Diclofenac, which is used as a positive control compound in the model.\nMethod: Male OFA rats (5 animals/group) are treated orally with COMPOUND A (1, 3 and 9 mg/kg), Diclofenac (3 mg/kg) or vehicle (placebo formulation). One hour later (0 hours) the rats receive a 100 μl intra-plantar injection of a 1% w/v carrageenan solution in 0.9% saline in the hind paw and the diameter of the paw is measured by means of a micro-caliper. The paw diameter measurements are repeated 3 and 5 hours after injection of the carrageenan. Percentage inhibition of paw swelling at 3 and 5 hours is calculated by reference to vehicle treated animals (0% inhibition).\nEdema is induced by a sub-plantar injection of carrageenan in the paw of the rat. Paw diameters are measured at the time of carrageenan injection (0 hours) and at 3 and 5 hours. Compounds are administered 1 hour before the carrageenan injection. COMPOUND A was dosed at 1, 3 and 9 mg/kg p.o. and Diclofenac at 3 mg/kg p.o."}, "[2]": {"system": "developing Adjuvant-induced arthritis in rats", "experiment": "Developing adjuvant-induced arthritis in rats (prophylactic dosing schedule)", "format": "in vivo, rat", "conditions": "for % inhibition: day 0 to day 14; for Swelling (mm) ± SEM: day 0 to day 14, readout day 14", "from_the_text": "Adjuvant arthritis can be treated using two different dosing schedules; either starting at the time of immunization with adjuvant (prophylactic dosing) or from day 15 when the arthritic response is already established (therapeutic dosing). It is more difficult to inhibit adjuvant arthritis with the therapeutic dosing schedule as compared to the prophylactic schedule. Both versions of adjuvant arthritis are, however, extremely sensitive to the effects of both non-selective COX inhibitors and COX 2 selective inhibitors where 70-90% inhibition of swelling can be achieved at appropriate doses. These models may be predictive for some of the processes thought to be relevant in rheumatoid arthritis.\nMethod: Female Wistar rats weighing 150-170 g (housed in standard conditions, 5 animals per cage, with food and water ad libitum) are injected i.d. at the base of the tail with 0.1 ml of mineral oil containing 0.6 mg of lyophilized heat-killed Mycobacterium tuberculosis. The rats are treated orally with COMPOUND A or placebo formulation from day 15 to day 22 (therapeutic dosing schedule) or with COMPOUND A from day 0 to day 14 after immunization (prophylactic dosing schedule). At the end of the experiment, the swelling of the tarsal joints is measured by means of a micro-caliper. For the comparison study to Diclofenac both compounds are given from day 15 to day 29 with readouts at day 22 and 29. Percentage inhibition of paw swelling is calculated by reference to placebo treated arthritic animals (0% inhibition) and placebo treated normal animals (100% inhibition). Five animals are used per group. Data are analyzed using Kruskal-Wallis non-parametric ANOVA followed by Dunn's Multiple Comparison test."}},
  "note": "Values joined by “and” are separate entries in the source; they are usually repeats but may differ in a detail not shown here. Equal values may be shown once. Marks after values point to notes of the source that are not given here.",
  "data": [
    {"smiles": "COC1=Nc2cc(Cl)ccc2/C(=C/C(=O)O)c2sc(Cl)cc21", "note": "[COMPOUND A, [2,7-Dichloro-10-methoxy-3-thia-9-aza-benzo[f]azulen-(4Z)-ylidene]-acetic acid]", "values": [
      {"measurement": "% inhibition of paw swelling", "setting": "[1]; 1 mg/kg p.o., 3 hrs after carrageenan", "result": 58, "unit": "%"},
      {"measurement": "% inhibition of paw swelling", "setting": "[1]; 1 mg/kg p.o., 5 hrs after carrageenan", "result": 65, "unit": "%"},
      {"measurement": "% inhibition of paw swelling", "setting": "[1]; 3 mg/kg p.o., 3 hrs after carrageenan", "result": 67, "unit": "%"},
      {"measurement": "% inhibition of paw swelling", "setting": "[1]; 3 mg/kg p.o., 5 hrs after carrageenan", "result": 48, "unit": "%"},
      {"measurement": "% inhibition of paw swelling", "setting": "[1]; 9 mg/kg p.o., 3 hrs after carrageenan", "result": 88, "unit": "%"},
      {"measurement": "% inhibition of paw swelling", "setting": "[1]; 9 mg/kg p.o., 5 hrs after carrageenan", "result": 74, "unit": "%"},
      {"measurement": "inhibition in the carrageenan edema model (in words)", "setting": "[1]; after 3 and 5 hours, dose of 1 to 9 mg/kg", "result": "dose-related inhibition"},
      {"measurement": "% inhibition", "setting": "[2]; 0.3 mg/kg p.o.", "result": "14.3 * %"},
      {"measurement": "Swelling (mm) ± SEM", "setting": "[2]; 0.3 mg/kg p.o.", "result": "10.9 ± 0.6", "unit": "mm"},
      {"measurement": "% inhibition", "setting": "[2]; 1 mg/kg p.o.", "result": "57.1 * %"},
      {"measurement": "Swelling (mm) ± SEM", "setting": "[2]; 1 mg/kg p.o.", "result": "9.1 ± 0.5", "unit": "mm"},
      {"measurement": "% inhibition", "setting": "[2]; 3 mg/kg p.o.", "result": "88% and 88.1 ** %"},
      {"measurement": "Swelling (mm) ± SEM", "setting": "[2]; 3 mg/kg p.o.", "result": "7.8 ± 0.2", "unit": "mm"},
      {"measurement": "ED50", "setting": "[2]; Rattus norvegicus, po, prophylactic dosing schedule, read-out: calculated ED50", "result": 0.8, "unit": "mg/kg"}
    ]}
  ]
}
